Data reported in patent EP1689759B1, “METHOD FOR PRODUCING PURE DISODIUM PAMIDRONATE” (Mustafa Nevzat Ilac Sanayii A.S., priority 2003, dated 2005).
Values joined by “and” are separate entries in the source; they are usually repeats but may differ in a detail not shown here. Identical values can stand only once.

Columns and labels:
[1] = Storage at room temperature at reduced pressure in vacuum drying oven (water content by KF); type: physicochemical; conditions: for water by KF method: room temperature, reduced pressure (20 millibar), RH less than 1 %
Procedure: (§1) These investigations were carried out in a HERAEUS vacuum drying oven of a volume of 53 liters, at a relative humidity (RH) of less than 1 %. Investigations of storage stability at normal pressure were carried out over a period of 1 week, in compliance with the internationally accepted standards about storage stability test conditions for pharmaceuticals as defined in ICH (International Conference on Harmonization of Technical Requirements for Registration of Pharmaceuticals for Human Use), at 25°C / 60 % RH for longterm stability condition, 30°C / […] for intermediate term stability condition and 40°C / 75 % RH for accelerated stability condition.

[2] = Storage stability at normal pressure over 1 week under ICH conditions (water content by KF); type: physicochemical
Procedure: as §1
Table 1. Water content (%, KF) of 3 lots of disodium pamidronate after storage for 1 week

[3] = from 1 week under the conditions of 24°C, 50 % RH; water contents 24,41 %; cited from earlier work

With `NCCC(O)(P(=O)([O-])O)P(=O)([O-])O.O.O.O.O.O.[Na+].[Na+]` [disodium pamidronate pentahydrate] the “water by KF method” value ([1]; after 4 hours of storage) was 24.7%, the “water by KF method” value ([1]; after 10 hours of storage) was 24.4% and the “water by KF method” value ([1]; after 38 hours of storage (determined in triplicate)) was 24.35% and 24.38% and 24.32%. For the same compound, the “Stability of the product (loss of water)” value ([1]; stored at room temperature at reduced pressure (20 millibar)) was “no loss of water” and the storage stability ([2]; 1 week at 25°C/60 % RH, 30°C/60 % RH and 40°C/75 % RH) was “stable”.
For `NCCC(O)(P(=O)([O-])O)P(=O)([O-])O.O.O.O.O.O.[Na+].[Na+]` [5 hydrates], the “loss of water contents on storage” value [3] is given as “a part of the water contents (24,41 %) is lost”.
In the case of `NCCC(O)(P(=O)([O-])O)P(=O)([O-])O.O.O.O.O.O.[Na+].[Na+]` [Lot 0036, disodium pamidronate pentahydrate], the “Water content (%, KF)” value ([2]; after storage for 1 week at 25°C/60%RH (longterm stability condition), listed as 0036) is reported as 24.32%, the “Water content (%, KF)” value ([2]; after storage for 1 week at 30°C/60%RH (intermediate term stability condition), listed as 0036) is reported as 24.35% and the “Water content (%, KF)” value ([2]; after storage for 1 week at 40°C/75%RH (accelerated stability condition), listed as 0036) is reported as 24.39%. The “Water content (%, KF)” value ([2]; initial, before storage, listed as 0036) was 24.48%.
With `NCCC(O)(P(=O)([O-])O)P(=O)([O-])O.O.O.O.O.O.[Na+].[Na+]` [Lot 0034, disodium pamidronate pentahydrate] the “Water content (%, KF)” value ([2]; after storage for 1 week at 25°C/60%RH (longterm stability condition), listed as 0034) was 24.37%, the “Water content (%, KF)” value ([2]; after storage for 1 week at 30°C/60%RH (intermediate term stability condition), listed as 0034) was 24.38% and the “Water content (%, KF)” value ([2]; after storage for 1 week at 40°C/75%RH (accelerated stability condition), listed as 0034) was 24.43%. For the same compound, the “Water content (%, KF)” value ([2]; initial, before storage, listed as 0034) was 24.55%.
For `NCCC(O)(P(=O)([O-])O)P(=O)([O-])O.O.O.O.O.O.[Na+].[Na+]` [Lot 0035, disodium pamidronate pentahydrate], the “Water content (%, KF)” value ([2]; after storage for 1 week at 25°C/60%RH (longterm stability condition), listed as 0035) was 24.40%, the “Water content (%, KF)” value ([2]; after storage for 1 week at 30°C/60%RH (intermediate term stability condition), listed as 0035) was 24.39% and the “Water content (%, KF)” value ([2]; after storage for 1 week at 40°C/75%RH (accelerated stability condition), listed as 0035) was 24.27%. For the same compound, the “Water content (%, KF)” value ([2]; initial, before storage, listed as 0035) was 24.38%.
